Source: patent publication US20070036793A1, “Methods for use of an lkb1/strad7mo25 complex” (priority 2003, published 2007)

Legend:
[1] = test system: AMPK; assay: AMPK activation by drugs in other cell types; type: cell-based
[2] = test system: AMPK-related kinases (NUAK2, QIK, QSK, SIK, MARK1, MARK2/3, MARK4); assay: Activity of endogenous AMPK-related kinases immunoprecipitated from HeLa cells after phenformin; type: cell-based, human; details: HeLa cells (control, wild type or kinase inactive LKB1), 10 mM phenformin, 1 h
Method: FIG. 29. Activity of AMPK-related kinases In HeLa cells. […] AMPKα1 and AMPK-related kinases were immunoprecipitated from the cell lysates, and in vitro kinase activity towards the AMARA peptide was measured as described in Materials and Methods (Example 4). To confirm equal expression of the kinases in each sample, cell lysates (AMPKα1, MARK2/3 and MARK4) or immunoprecipitated proteins (NUAK2, QIK, QSK, SIK and MARK1) were subjected to SDS-PAGE and western immunoblot analysis. All AMPK-related kinases migrated with the expected molecular mass. In the case of AMPKα1, cell lysates were immunoblotted with a pThr172 antibody (P-AMPK), that recognises the phosphorylated T-loop. Results shown are average + SD of 2-4 assays and are representative of at least two independent experiments.
Cell culture, stimulation and cell lysis. […] Protein concentrations were determined by the Bradford method with bovine serum albumin as the standard (Bradford, 1976).
0.1-1 mg of Hela or MEF lysate protein was incubated at 4° C. for 1 h on a shaking platform with 5 μg of the corresponding antibody, which had been previously conjugated to 5 μl of protein G-Sepharose. The immunoprecipitates were washed twice with 1 ml of Lysis Buffer containing 0.5 M NaCl, and twice with 1 ml of Buffer A. Phosphotransferase activity towards the AMARA peptide was then measured in a total assay volume of 50 μl as described above.

[3] = target: T1, AMPK (Homo sapiens, UniProt Q13131); assay: Activation and Thr-172 phosphorylation of endogenous AMPK in HeLa cells with or without stably expressed LKB1; type: cell-based; details: earlier unpublished results
T1 construct: Endogenous AMPK was immunoprecipitated from the cell extracts and assayed; endogenous in cells; host or cells: HeLa cells (control, or stably expressing wild type or kinase-dead LKB1)
T1 sequence (Q13131 whole entry): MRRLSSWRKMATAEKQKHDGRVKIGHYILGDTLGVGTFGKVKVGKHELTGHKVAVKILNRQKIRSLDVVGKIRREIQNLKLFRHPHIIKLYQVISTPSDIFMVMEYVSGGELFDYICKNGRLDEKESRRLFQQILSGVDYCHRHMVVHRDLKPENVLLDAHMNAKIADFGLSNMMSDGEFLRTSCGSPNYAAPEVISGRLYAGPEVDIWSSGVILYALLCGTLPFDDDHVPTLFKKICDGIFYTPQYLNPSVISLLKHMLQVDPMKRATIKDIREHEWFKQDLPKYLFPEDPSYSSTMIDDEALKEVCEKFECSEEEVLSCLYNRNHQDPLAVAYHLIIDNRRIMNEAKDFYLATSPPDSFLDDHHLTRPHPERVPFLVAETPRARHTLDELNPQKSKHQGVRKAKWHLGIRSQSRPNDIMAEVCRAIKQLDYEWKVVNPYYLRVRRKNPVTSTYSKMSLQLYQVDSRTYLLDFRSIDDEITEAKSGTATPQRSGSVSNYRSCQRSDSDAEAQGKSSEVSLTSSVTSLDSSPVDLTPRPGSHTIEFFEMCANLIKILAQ
T1 sequence (Q9Y478 2-270 partner limits assumed): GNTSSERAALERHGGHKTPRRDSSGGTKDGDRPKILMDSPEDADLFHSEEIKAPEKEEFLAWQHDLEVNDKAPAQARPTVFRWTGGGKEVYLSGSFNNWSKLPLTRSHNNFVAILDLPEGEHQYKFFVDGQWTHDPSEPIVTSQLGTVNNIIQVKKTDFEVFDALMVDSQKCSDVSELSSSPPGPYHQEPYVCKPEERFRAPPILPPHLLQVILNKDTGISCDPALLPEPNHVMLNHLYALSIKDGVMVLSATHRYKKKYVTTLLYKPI
T1 sequence (P54619 whole entry partner): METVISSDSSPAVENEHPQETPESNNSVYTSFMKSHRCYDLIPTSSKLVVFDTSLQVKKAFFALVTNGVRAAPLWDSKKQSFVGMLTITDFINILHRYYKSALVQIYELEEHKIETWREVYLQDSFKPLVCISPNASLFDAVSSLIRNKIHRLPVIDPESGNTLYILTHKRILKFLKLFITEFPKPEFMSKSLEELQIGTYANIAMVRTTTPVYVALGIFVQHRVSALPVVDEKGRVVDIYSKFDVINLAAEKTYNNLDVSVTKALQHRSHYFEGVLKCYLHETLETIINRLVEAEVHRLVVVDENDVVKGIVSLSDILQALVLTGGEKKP

| SMILES | activation of AMPK compared with metformin [1] | activity of AMPK-related kinases [2] | activation of AMPK [3] |
| --- | --- | --- | --- |
| [H]/N=C(/N)N/C(=N/[H])NCCc1ccccc1 [phenformin] | more rapidly and more potently than metformin | none of the AMPK-related kinases were significantly activated | – |
| NC(=O)c1ncn([C@@H]2O[C@H](CO)[C@@H](O)[C@H]2O)c1N [AICA riboside, 5-aminoimidazole-4-carboxamide (AICA) riboside] | – | – | not activated |
